Laboratory results reported in patent US20130253056A1, “Continuous Administration of Levodopa and/or Dopa Decarboxylase Inhibitors and Compositions for Same” (NEURODERM, LTD., priority 2009, published 2013).
≈ marks a conversion by molar mass, not a printed value. Where “and” joins values, the source holds several entries; their conditions need not be identical. Equal entries are not always repeated. Structures can show the parent of a compound that is named as a salt. Where two headings read alike, the source gives them in different places.

Legend:
[1] = Solubility in PBS, flask method; type: physicochemical; conditions: for solubility: phosphate buffered saline (PBS), aqueous buffer, thermodynamic from solid, read-out: Solubility of LDEs in PBS
Procedure: The “flask method” was used to determine the solubility of the test material in phosphate buffered saline (PBS) according to the OECD Guidelines for the Testing of Chemicals. Briefly, the test material was dissolved in PBS at a temperature slightly above the test temperature. When saturation is achieved, the solution is cooled to the test temperature and the mass concentration of the LD alkyl ester in the solution is determined quantitatively by measuring the absorbance of the solution at 280 nm and comparing the readings to a calibration curve of the relevant alkyl ester dissolved in PBS.

[2] = Oral levodopa arginine and carbidopa arginine salts, PK in pigs; type: in vivo, female landrace×large white swine; conditions: for absorption as compared to LD/CD (Sinemet): oral 255/45 mg LDs/CDs (corresponding to 100/25 LD/CD); for PK of plasma LD and CD: oral enteric coated LDs/CDs
Procedure: Pigs were orally administered with 255/45 mg LD-arginine salt (LDs)/CD-arginine salt (CDs) to 30-35 kg pigs in gelatin coated or non-coated capsules (corresponding to 100/25 LD/CD). Plasma levels of LD and CD were measured by HPLC-ECD.

[3] = Intradermal delivery of LDE in pigs; type: in vivo
Procedure: LDEs were infused intradermally for 4 hours. […] Both whole blood and plasma samples were subjected to LD and LDE analysis.

[4] = Pig skin penetration of LDE by patch; type: in vivo, pigs; conditions: for LD P/WB (%) / LD blood cells (C) / Whole blood (WB) LD / Ratio C/P / Plasma (P) LD: 16 h after patch application; for LD blood cells (C) / Whole blood (WB) LD / Plasma (P) LD / LD concentration in the blood cell fraction higher as compared to LDbzE: pigs; for Ratio C/P: blood cell fraction LD / plasma LD; for LD concentration in the blood cell fraction higher as compared to LDbzE: patch
Procedure: Patch removal occurred at 24 h. […] Both whole blood and plasma were subjected to LD and 3-OMD analysis. […] LD formed in the RBC stay within the RBCs, and is further metabolized to 3-OMD, which is reallocated from the RBCs into the plasma.

[5] = Transdermal delivery through pig skin ex vivo, Franz cell delivery system; type: in vitro ADME, porcine; conditions: gel formulations, receiver samples 0, 16, 19 and 22 hours
Procedure: Gel formulations containing CDPE were prepared. Samples were collected from the receiver cell at time 0, 16, 19 and 22 hours after formulation application on to the skin. The amount of CD compounds in the receiver cell fluid was determined by a spectrophotometer at […].

[6] = target: T1, dopa-decarboxylases (DDC) (Sus scrofa, UniProt P80041); assay: Inhibition of dopa-decarboxylase activity in vitro; type: biochemical; conditions: porcine liver homogenate
T1 construct: DDC enzymes were obtained from porcine liver homogenate; from tissue; host or cells: porcine liver homogenate
T1 sequence (P80041 1-486): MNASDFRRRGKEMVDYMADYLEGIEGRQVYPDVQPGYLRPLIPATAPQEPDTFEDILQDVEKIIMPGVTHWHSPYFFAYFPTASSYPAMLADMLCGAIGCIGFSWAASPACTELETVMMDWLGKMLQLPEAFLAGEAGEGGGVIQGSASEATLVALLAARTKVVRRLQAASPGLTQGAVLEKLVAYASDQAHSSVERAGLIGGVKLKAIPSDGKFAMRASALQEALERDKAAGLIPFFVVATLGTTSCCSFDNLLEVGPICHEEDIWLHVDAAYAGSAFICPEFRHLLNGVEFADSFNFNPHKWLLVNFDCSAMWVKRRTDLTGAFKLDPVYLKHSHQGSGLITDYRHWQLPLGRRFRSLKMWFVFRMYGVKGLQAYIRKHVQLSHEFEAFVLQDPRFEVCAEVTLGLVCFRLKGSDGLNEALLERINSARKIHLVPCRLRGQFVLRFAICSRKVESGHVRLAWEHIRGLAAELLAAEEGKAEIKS
Procedure: DDC enzymes were obtained from porcine liver homogenate and their activity was measured by comparing LD concentrations with and without carbidopa propyl ester (CDPE). Liver homogenate preparation was based on the method described by Umezawa et al; (J. Antib. 1975, 28(12):947-52).
All samples were separated on high pressure liquid chromatography columns and the identity and concentration of L-DOPA and dopamine were determined by HP UV-HPLC analysis at […].

[7] = tested on: mice; assay: Skin sensitization, LLNA (local lymph node assay); conditions: for Median SI / SI / Ind. SI: LLNA mice; for Ind. SI: individual animals
Procedure: Sensitization was tested in mice using a LLNA (local lymph node assay) model for the detection of skin sensitization. […] In another LLNA study, LD Propyl and Benzyl Esters were tested in vehicle containing penetration enhancers.

[8] = for LD in Blood (ng/ml): LDiPE / LD in Blood (ng/ml): LD-d3 / Recovery from Blood (%): LD-d3: whole blood
Procedure: (§2) LDEs [isopropyl ester (LDipE), propyl ester (LDpE), ethyl ester (LDeE)] and LD-d3, were spiked into whole blood, incubated for 15 or 60 minutes at 37° C., and the plasma or whole blood concentration of LD, LD-d3 and LDipE were quantified using HPLC analysis as shown in Table 6 and FIG. 13.

[9] = in vitro
Procedure: as §2

[10] = Effect of pH on stability and hydrolysis of LDipE; type: physicochemical
Procedure: FIG. 19 indicates the effect of pH on stability and hydrolysis of LDipE after 10 days at 4 and 40° C.

[11] = Continuous subcutaneous benserazide, levodopa PK in pigs; type: in vivo, female landrace×large white swine; conditions: continuous subcutaneous benserazide with oral L-dopa/Carbidopa
Procedure: (§1) Plasma levels of L-dopa were measured by HPLC-ECD.

[12] = Continuous subcutaneous carbidopa with or without entacapone, levodopa PK in pigs; type: in vivo, female landrace×large white swine; conditions: continuous SC 2% carbidopa with 2.5% entacapone, oral LD/CD
Procedure: as §1

[13] = Continuous subcutaneous administration of LD benzyl ester-HCl in pigs; type: in vivo; conditions: 15% aqueous solution pH 4.7, continuous SC 2 ml/24 h, oral carbidopa q8 h
Procedure: An aqueous solution of 15% LD benzyl ester-HCl, pH 4.7, was continuously administered subcutaneously via an insulin patch pump, 2 ml/24 h. Carbidopa was administered orally q8 h, starting 1 h prior to pump application.

[14] = cited from earlier work
[15] = T0 after spiking into whole blood
[16] = T15′ after spiking into whole blood

CCCCCCCCOC(=O)[C@@H](N)Cc1ccc(O)c(O)c1 [Octyl, levodopa octyl ester]
solubility [1]: 31 µg/mL (≈ 0.1 mM)

CC(Cc1ccc(O)c(O)c1)(NN)C(=O)O.N=C(N)NCCCC(N)C(=O)O (stereo not shown) [CDs]
absorption as compared to LD/CD (Sinemet) [2]: absorbed more rapidly and efficiently
PK of plasma LD and CD [2]: extended the PK of plasma LD and CD

N[C@@H](Cc1ccc(O)c(O)c1)C(=O)OCc1ccccc1 [LD Benzyl Ester, levodopa benzyl ester]
hydrolysis to LD ([3]; intradermal infusion): hydrolyzed to LD faster than LD isopropyl ester
LD P/WB (%) [4]: 39.1%
LD P/WB (%) ([4]; listed as LDbzE): ~40%
LD blood cells (C) [4]: 2506 ng/mL
Whole blood (WB) LD [4]: 4115 ng/mL

N=C(N)NCCCC(N)C(=O)O.NC(Cc1ccc(O)c(O)c1)C(=O)O (stereo not shown) [LDs]
absorption as compared to LD/CD (Sinemet) [2]: absorbed more rapidly and efficiently
PK of plasma LD and CD [2]: extended the PK of plasma LD and CD

CCCOC(=O)C(C)(Cc1ccc(O)c(O)c1)NN (stereo not shown) [CDPE, carbidopa propyl ester]
transdermal delivery through full thickness porcine skin [5]: penetrates the skin in an enhancer-dose dependent manner
inhibition of decarboxylation of L-dopa to dopamine [6]: inhibits the decarboxylation of L-dopa to dopamine, in a similar manner to carbidopa and benserazide

CCCOC(=O)[C@@H](N)Cc1ccc(O)c(O)c1 [LD Propyl Ester, levodopa propyl ester]
Median SI ([7]; 1M (24%) in DMF): 3.5
SI ([7]; 1M (24%) in DMF): 3.6
Ind. SI ([7]; 1M (24%) in DMF): 2.32 and 4.55 and 5.12 and 2.44
Ind. SI ([7]; 15% in Vehicle (penetration enhancers)): 36.42 and 7.70 and 38.60 and 3.53 and 31.68
Median SI ([7]; 15% in Vehicle): 31.7
SI ([7]; 15% in Vehicle): 23.6
change of SI when applied using the transdermal formulation ([7]; compared with DMF): significantly increased
Solubility of LDEs in PBS [1]: 11.238 mg/mL
LD P/WB (%) ([4]; listed as Propyl): 24.7%
LD P/WB (%) ([4]; listed as propyl): 25%
Ratio C/P [4]: 3.0
Ratio C/P ([4]; listed as LDpE): 3
LD blood cells (C) [4]: 4820 ng/mL
Plasma (P) LD [4]: 1584 ng/mL
Whole blood (WB) LD [4]: 6404 ng/mL
LD concentration in the blood cell fraction higher as compared to LDbzE [4]: 1.9 ×

CC(C)OC(=O)[C@@H](N)Cc1ccc(O)c(O)c1 [LD Isopropyl Ester, levodopa isopropyl ester]
levels of LDipE in the RBC fraction ([3]; during 4 hours intradermal infusion): Significant levels of LDipE were found in the RBC fraction
Median SI ([7]; 1M (24%) in DMF): 3.5
SI ([7]; 1M (24%) in DMF): 4.2
Ind. SI ([7]; 1M (24%) in DMF): 3.63 and 7.11 and 2.69 and 3.33
Recovery from Blood (%): LDiPE ([8]; 0 min): 45%
LD in Plasma (ng/ml): LDiPE ([8]; T0 after spiking of LDipE into whole blood): 0 ng/mL
LD in Plasma (ng/ml): LDiPE ([8]; T15′ after spiking of LDipE into whole blood): 0 ng/mL
LD in Blood (ng/ml): LDiPE ([8]; T0 after spiking of LDipE): 180 ng/mL
LD in Blood (ng/ml): LDiPE ([8]; T15′ after spiking of LDipE, 37° C.): 0 ng/mL
recovery at 15 min [9]: 0%
recovery at 15 min, 400 ng/ml [9]: 0%
solubility [1]: 17300 µg/mL (≈ 72.2 mM)
pH of the most stable formulation tested ([10]; after 10 days at 4° C.): 5.1
pH of the most stable formulations tested ([10]; after 10 days at 40° C., listed as LDipE): 3.7 and 4.8

[2H]c1c([2H])c(C[C@H](N)C(=O)O)c([2H])c(O)c1O [LD-d3]
LD in Plasma (ng/ml): LD-d3 [8, 15]: 533 ng/mL
Recovery from Plasma (%): LD-d3 [8, 15]: 67%
LD in Plasma (ng/ml): LD-d3 [8, 16]: 573 ng/mL
Recovery from Plasma (%): LD-d3 [8, 16]: 70% and 72%
LD in Blood (ng/ml): LD-d3 ([8]; T0 after spiking): 289 ng/mL
Recovery from Blood (%): LD-d3 ([8]; T0 after spiking): 72%
Recovery from Blood (%): LD-d3 ([8]; T15′ after spiking): 72%
LD in Blood (ng/ml): LD-d3 ([8]; T15′ after spiking, 37° C.): 288 ng/mL

NC(CO)C(=O)NNCc1ccc(O)c(O)c1O (stereo not shown) [benserazide]
pharmacokinetic profile of LD [11]: extended the pharmacokinetic profile of LD

Nc1ccc(N)cc1 [Positive Control, p-Phenylendiamine, reference compound]
Median SI ([7]; 1%): 9.7
SI ([7]; 1%): 10.1
Ind. SI ([7]; 1%): 8.82 and 9.33 and 12.15 and 10.00

CCN(CC)C(=O)/C(C#N)=C/c1cc(O)c(O)c([N+](=O)[O-])c1 [entacapone]
levels of 3-OMD [12]: effectively reduced
pharmacokinetics of levodopa [12]: did not further extend

CCOC(=O)[C@@H](N)Cc1ccc(O)c(O)c1 [LD Ethyl Ester, levodopa ethyl ester]
Median SI ([7]; 1M (24%) in DMF): 10.8
SI ([7]; 1M (24%) in DMF): 10.7
Ind. SI ([7]; 1M (24%) in DMF): 13.31 and 8.22 and 14.45 and 6.65
LD P/WB (%) ([4]; listed as Ethyl): 13.4%
LD P/WB (%) ([4]; listed as ethyl): 13%
Ratio C/P [4]: 6.5
LD blood cells (C) [4]: 6418 ng/mL
Plasma (P) LD [4]: 989 ng/mL
Whole blood (WB) LD [4]: 7407 ng/mL
LD concentration in the blood cell fraction higher as compared to LDbzE [4]: 2.5 ×

NC(Cc1ccc(O)c(O)c1)C(=O)OCc1ccccc1 (stereo not shown) [LD benzyl ester-HCl]
plasma concentrations of LD [13]: fluctuations of LD concentrations in the plasma coincided with oral carbidopa administration

N[C@@H](Cc1ccc(O)c(O)c1)C(=O)O [Levodopa, L-3,4-dihydroxyphenylalanine]
solubility in alcohol, chloroform or ether [14]: practically insoluble
solubility in water [14]: only slightly soluble in water

CCCCOC(=O)[C@@H](N)Cc1ccc(O)c(O)c1 [Butyl, levodopa butyl ester]
Solubility of LDEs in PBS [1]: 8.85 mg/mL
